Measurements taken from patent US8663701B2, “Compositions containing ultra-micronized palmitoyl-ethanolamide” (priority 2009, dated 2014).

Key:
[1] = system: TNF-alpha, tissue mast cells; assay: LPS-induced acute intestinal inflammation; type: in vivo, mouse; conditions: 18 hours after LPS
Protocol: (§1) An acute inflammation was induced in the animal by means of intra-peritoneal injection of LPS (lipopolysaccharide): the animals were sacrificed after 18 hours from the LPS administration. Instead, a chronic inflammation at the colon level was induced by administering the animal with DNBS (2,4-Dinitrobenzene sulfonic acid): in this case, the animals were sacrificed after 96 hours from the DNBS administration.
(§2) The level of TNF-alpha and the percent variation in the number of mast cells were assessed on intestinal tissue.

[2] = system: IL-1 beta, NO2; assay: Beta-amyloid-induced neuroinflammation; type: in vivo, C57BL/6 mice; conditions: for Effect on the levels of the biological parameters considered: IL-1 beta and NO2 in hippocampus; for Hippocampal levels of NO2 / Hippocampal tissue levels of IL-1 beta (with immunofluorescence method) (count of cells immunopositive to THE-1 beta): per os daily for 8 days after beta-amyloid inoculation
Protocol: C57BL/6 mice with age ranging between 3 and 5 months have been used, divided in 3 different groups (20 animals per group). […] The administrations were carried out daily for 8 days successive to the inoculation of the beta-amyloid. The third group was administered with the vehicle alone. After sacrifice of the animal, IL-1 beta and NO2 dose level was measured in the hippocampal homogenate via an immunofluorescence method.
The experimental method described by Esposito et al., Br J Pharmacol. 2007; 151:1272-1279 has been used.

[3] = system: TNF-alpha, tissue mast cells; assay: DNBS-induced chronic intestinal inflammation; type: in vivo, mouse; conditions: 96 hours after DNBS
Protocol: as §1, §2

[4] = Particle size profile, laser particle size analyzer (LALLS); type: physicochemical; conditions: ultra-micronization
Source text: In order to measure the particle size, a laser particle size analyzer (Malvern Mastersizer) with LALLS (Low Angle Laser Light Scattering) technique using the Fraunhofer theory of computation is employed.

[5] = Modulated Differential Scanning Calorimetry (MDSC); type: physicochemical; conditions: room temperature; from MDSC spectrum
Source text: The MDSC technique is a known one, the principles and applications of which are described, for example, in S. R. Rabel et al., Journal of Pharmaceutical and Biomedical Analysis, 21 (1999) 339-345. The tests described in the present patent application have been carried out with an equipment TA DSC Q200.
Such differential calorimetry measurement performed with the MDSC technique have shown an outstanding difference between the initial product and the ultra-micronized product, which difference consists in the appearance, in the product subjected to ultra-micronization, of a positive peak of exothermal transition at a temperature between 101° C. and 103° C., which is distinctive of structures with a high energy content; in the original product, such peak results, on the contrary, to be negative (see FIGS. 3 and 4). The positive exothermal transition peak has to be interpreted as the signal of the heat developed by the transformation of the higher energy content form (formed during the ultra-micronization process) into the native crystalline form with lower energy content.
The net energy transition which characterizes the positive peak at 101-103° C. of FIG. 4 is symptomatic of such stability. Differently, progressive transitions at lower temperatures should have to be noticed.

[6] = Concentration of PEA in serum after single oral administration; type: in vivo, Beagle dogs; conditions: 15 mg/Kg oral, fasting
[7] = system: cutaneous reaction induced by Ascaris suum; assay: Cutaneous reaction induced by Asc S1 antigen in dogs sensitized to Ascaris suum; type: in vivo, Beagle dog; conditions: for Inhibition on the cutaneous reaction induced by Ascaris suum: 10 mg/Kg oral; for Inhibition of the cutaneous reaction: between 1 and 4 hours after treatment
Protocol: Beagle dog spontaneously sensitized to Ascaris suum were used.
A 2% solution of Evans Blue in saline was administered endovenously (0.4 mL/Kg) 30 minutes before the intradermal injection of Asc S1 antigen, so as to be able to visualize the dermal reaction area.
The dermal reaction area was measured 10 minutes after the injection of Asc S1 antigen.

[8] = system: 2-arachidonoylglycerol (2-AG); assay: Concentration of 2-AG in serum after single oral administration of PEA; type: in vivo, Beagle dogs; conditions: for Concentration in serum, 2AG: 15 mg/Kg oral, fasting; for Increase of 2-AG in blood compared to the basal levels: administration per os
Source text: Dose measurements in blood have been carried out of 2-arachidonoyl-glycerol (2-AG), an endocannabinoid of great importance in the modulation of the activation of cells capable of expressing the cannabinoid CB2 receptor; this is the case of many cells belonging to the immune system as the microglia.

[9] = system: neuropathic pain at the lower limbs; assay: Neuropathic pain in Multiple Sclerosis patients, VAS scale; type: in vivo; conditions: for VAS after the treatment of 60 days (average value): tablets
Protocol: The pain intensity was measured with a VAS (Visual Analogue Scale) scale both before and at the end of the treatment with palmitoylethanolamide.

[10] = system: TNF-alpha, NGF, NF-kB, IL-1 alpha; assay: Sciatic nerve ligation (CCI), spinal parameters at day 10; type: in vivo, mouse; conditions: for IL-1alpha / NGF / TNF-alpha: spinal area, day 10 after ligation (CCI), per os once per day
Source text: After sciatic nerve ligation—CCI (carried out as described by Costa et al., Pain 2008; 139:541-550), a series of altered spinal parameters have been assessed in the mouse, following peripheral damage, and related to the activation of microglial cells induced by the peripheral chronic distress. In particular, TNF-alpha, NGF, NF-kB according to the method described by Costa et al. (see supra), and IL-1 alpha according to the method described by Fiorentino et al., 2008; 58(10):3100-3109 have been measured.
A 0.5% solution in carboxymethyl cellulose has been used as a vehicle.
The measurements of the parameters indicated, above have been carried out at day 10 from the sciatic nerve ligation, after sacrifice of the test animal and sampling of the spinal area.

[11] = system: protein NGF, protein TNF-alpha; assay: Carrageenan-induced granuloma; type: in vivo, rat; conditions: for Expression of protein NGF in the dorsal root ganglia / Expression of protein NGF in the granulomatous tissue / Expression of protein TNF-alpha in the dorsal root ganglia: 96 hours, 10 mg/Kg oral every 12 hours for 3 days
Protocol: The pharmacological model of granuloma induced, in the rat, by the introduction in the subcutaneous tissue of carrageenan-soaked sponge has been used. The model is described in De Filippis et al., J Cell Mol Med. 2009; 13(6):1086-1095.
The administrations were carried out at time 0 (immediately before the introduction of the sponges), and every 12 hours for 3 consecutive days. The unit doses administered were 10 mg/Kg.
The biochemical parameters relative to pro-algogenic mediators were detected, after sacrifice of the animal occurred after 96 hours from the introduction of the sponges, both in the granulomatous tissue (expression of the protein NGF), and at the level of the dorsal root ganglia (RDG) (expression of the protein TNF-alpha and the protein NGF).

[12] = vehicle 100, listed as Ultra-micronized PEA
[13] = Time 0 (immediately before administration)
[14] = Time 0 hours (before administration)
[15] = listed as ultra-micronized PEA, 10 mg/kg
[16] = vehicle 100, listed as Micronized PEA
[17] = listed as micronized PEA, 10 mg/kg

## CCCCCCCCCCCCCCCC(=O)NCCO [Ultra-micronized palmitoylethanolamide, palmitoylethanolamide]
[1]; listed as Ultra-micronized PEA
  Expression of protein TNF-alpha: 75.6 ± 12.3 OD = mm^2
[1]; [12]
  Number of tissue mast cells, percent of vehicle: 41%
[2]; listed as ultra-micronized PEA
  Effect on the levels of the biological parameters considered: high decrease
  Hippocampal levels of NO2: 3.1 ± 0.6 μM/μg of proteins from hippocampal homogeneate
  Hippocampal tissue levels of IL-1 beta (with immunofluorescence method) (count of cells immunopositive to THE-1 beta): 21.8 ± 5.4
[3]; listed as Ultra-micronized PEA
  Expression of protein TNF-alpha: 62.9 ± 11.8 OD = mm^2
[3]; [12]
  Tissue mast cell number, percent of vehicle: 26%
[4]
  Particle size <0.6 microns: 2.0%
  Particle size <1 microns: 14.7%
  Particle size <2 microns: 59.6%
  Particle size <6 microns: 99.9%
  Particle size <10 microns: 100%
  Particle size >14 microns: Absent
[5]
  Stability of the high energy crystalline form: substantially stable at room temperature
[6]; [13]
  Concentration in serum, PEA: 12.4 nM
[6]; Time 1 h, 15 mg/kg
  Concentration in serum, PEA: 22.4 nM
[6]; Time 2 h, 15 mg/kg
  Concentration in serum, PEA: 16.2 nM
[6]; Time 3 h, 15 mg/kg
  Concentration in serum, PEA: 14.1 nM
[7]; [14]
  Inhibition on the cutaneous reaction induced by Ascaris suum: 0%
[7]; Time 1 hours, 10 mg/kg
  Inhibition on the cutaneous reaction induced by Ascaris suum: 20.8 ± 5.4%
[7]; Time 2 hours, 10 mg/kg
  Inhibition on the cutaneous reaction induced by Ascaris suum: 32.4 ± 4.7%
[7]; Time 4 hours, 10 mg/kg
  Inhibition on the cutaneous reaction induced by Ascaris suum: 26.0 ± 4.9%
[7]; Time 8 hours, 10 mg/kg
  Inhibition on the cutaneous reaction induced by Ascaris suum: 15.1 ± 9.6%
[7]; Time 24 hours, 10 mg/kg
  Inhibition on the cutaneous reaction induced by Ascaris suum: 4.5 ± 6.7%
[7]; listed as ultra-micronized PEA
  Inhibition of the cutaneous reaction: above 20%
[8]; [13]
  Concentration in serum, 2AG: 1.0 pmol/mL
[8]; Time 1 h, 15 mg/kg
  Concentration in serum, 2AG: 3.6 pmol/mL
[8]; Time 2 h, 15 mg/kg
  Concentration in serum, 2AG: 4.2 pmol/mL
[8]; Time 3 h, 15 mg/kg
  Concentration in serum, 2AG: 4.7 pmol/mL
[8]
  Increase of 2-AG in blood compared to the basal levels: higher than 400%
[9]; 600 mg per day for 60 days
  VAS after the treatment of 60 days (average value): 2.85
[9]; 600 mg per day for 60 days, Wilcoxon p=0.001
  Effect on pain (VAS): marked decrease of the pain
[9]
  VAS before the treatment (average value): 6.52
[10]; CCI, day 10
  Effect on all the biochemical parameters under investigation: substantial normalization
[10]; listed as ultra-micronized PEA
  IL-1alpha: 2.50 ± 0.02 pg/mg prot
  NGF: 10.2 ± 2.0 pg/mg prot
  TNF-alpha: 44.1 ± 2.8 pg/mg prot
[11]
  Expression of protein NGF in the dorsal root ganglia: 43.8 ± 3.1 OD = mm^2
[11]; [15]
  Expression of protein NGF in the granulomatous tissue: 6.1 ± 1.6 OD = mm^2
  Expression of protein TNF-alpha in the dorsal root ganglia: 96.6 ± 10.4 OD = mm^2
[11]; compared to the micronized PEA
  Decrease of NGF levels: much more marked decrease

## CCCCCCCCCCCCCCCC(=O)NCCO [Micronized palmitoylethanolamide, palmitoylethanolamide, reference compound]
[1]; listed as Micronized PEA
  Expression of protein TNF-alpha: 128.3 ± 10.8 OD = mm^2
[1]; [16]
  Number of tissue mast cells, percent of vehicle: 86%
[2]; listed as micronized PEA
  Effect on the levels of the biological parameters considered: only a marginal activity
  Hippocampal levels of NO2: 8.2 ± 2.1 μM/μg of proteins from hippocampal homogeneate
  Hippocampal tissue levels of IL-1 beta (with immunofluorescence method) (count of cells immunopositive to THE-1 beta): 86.3 ± 7.9
[3]; listed as Micronized PEA
  Expression of protein TNF-alpha: 134.8 ± 8.4 OD = mm^2
[3]; [16]
  Tissue mast cell number, percent of vehicle: 74%
[6]; Beagle, dog, serum, po, 15 mg/kg, Time 0 (immediately before administration)
  concentration at 0 h: 12.4 nM
[6]; Beagle, dog, serum, po, 15 mg/kg, Time 1 h
  concentration at 1 h: 22.2 nM
[6]; Beagle, dog, serum, po, 15 mg/kg, Time 2 h
  concentration at 2 h: 15.6 nM
[6]; Beagle, dog, serum, po, 15 mg/kg, Time 3 h
  concentration at 3 h: 13.4 nM
[7]; [14]
  Inhibition on the cutaneous reaction induced by Ascaris suum: 0%
[7]; Time 1 hours, 10 mg/kg
  Inhibition on the cutaneous reaction induced by Ascaris suum: 9.4 ± 2.6%
[7]; Time 2 hours, 10 mg/kg
  Inhibition on the cutaneous reaction induced by Ascaris suum: 9.3 ± 4.7%
[7]; Time 4 hours, 10 mg/kg
  Inhibition on the cutaneous reaction induced by Ascaris suum: −2.6 ± 4.2%
[7]; Time 8 hours, 10 mg/kg
  Inhibition on the cutaneous reaction induced by Ascaris suum: −0.8 ± 2.0%
[7]; Time 24 hours, 10 mg/kg
  Inhibition on the cutaneous reaction induced by Ascaris suum: −0.2 ± 2.0%
[7]; listed as micronized PEA
  Inhibition of the cutaneous reaction: almost null
[8]; [13]
  Concentration in serum, 2AG: 1.0 pmol/mL
[8]; Time 1 h, 15 mg/kg
  Concentration in serum, 2AG: 1.2 pmol/mL
[8]; Time 2 h, 15 mg/kg
  Concentration in serum, 2AG: 1.6 pmol/mL
[8]; Time 3 h, 15 mg/kg
  Concentration in serum, 2AG: 1.7 pmol/mL
[8]
  Increase of 2-AG in blood compared to the basal levels: about 70%
[9]; 600 mg per day for 60 days
  VAS after the treatment of 60 days (average value): 4.22
[9]
  VAS before the treatment (average value): 6.52
[10]; listed as micronized PEA
  IL-1alpha: 25.80 ± 2.0 pg/mg prot
  NGF: 38.6 ± 3.0 pg/mg prot
  TNF-alpha: 60.4 ± 3.0 pg/mg prot
[11]; [17]
  Expression of protein NGF in the dorsal root ganglia: 50.8 ± 3.0 OD = mm^2
  Expression of protein NGF in the granulomatous tissue: 14.6 ± 2.1 OD = mm^2
  Expression of protein TNF-alpha in the dorsal root ganglia: 151.1 ± 9.6 OD = mm^2
